“And” between values parts separate entries of the source, which are not always exact repeats. Equal entries are not always repeated.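 All cell lines were grown in 96-well plates and treated with compound for 48 hours. GI50 is the concentration that inhibits growth by half. The concentration for full growth arrest is given as TGI.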
Columns and labels:
Test in all cases: NCI anticancer screen, dose series, 48 h
CCRF-CEM leukemia = test system: CCRF-CEM leukemia
COLO 205 colon = test system: COLO 205 colon
SK-MEL-2 melanoma = test system: SK-MEL-2 melanoma
NCI-H460 lung = test system: NCI-H460 lung
HCT-116 colon = test system: HCT-116 colon
BT-549 breast = test system: BT-549 breast
HL-60(TB) leukemia = test system: HL-60(TB) leukemia
EKVX NSCLC = test system: EKVX NSCLC
SNB-19 CNS = test system: SNB-19 CNS
MDA-MB-231 breast = test system: MDA-MB-231 breast

For NC(=O)CN1C=CCC(C(N)=O)=C1, the TGI (CCRF-CEM leukemia) was > 100 µM, the TGI (COLO 205 colon) was > 100 µM and the TGI (SK-MEL-2 melanoma) was > 100 µM. For the same compound, the TGI (NCI-H460 lung) was > 100 µM, the TGI (HCT-116 colon) was > 100 µM and the TGI (BT-549 breast) was > 100 µM. For the same compound, the TGI (HL-60(TB) leukemia) was > 100 µM, the TGI (EKVX NSCLC) was > 100 µM and the TGI (SNB-19 CNS) was > 100 µM.

Cc1c([C@H](C)[C@@H]2NC[C@@H](C)C[C@H]2O)ccc2c1C[C@H]1[C@H]2CC=C2C[C@@H](O)CC[C@@]21C was tested, and the TGI (MDA-MB-231 breast) was 35.4 µM, the TGI (CCRF-CEM leukemia) was 38.4 µM and the TGI (COLO 205 colon) was 29.4 µM. It also gave a TGI (NCI-H460 lung) of 41.4 µM, a TGI (HCT-116 colon) of 30.6 µM and a TGI (BT-549 breast) of 54.5 µM. It also gave a TGI (EKVX NSCLC) of 8.53 µM and a TGI (SNB-19 CNS) of 82.3 µM.

With CC(C)(C)OC(=O)c1ccc(NCC2=C(Br)C(=O)C=CC2=O)cc1 the TGI (MDA-MB-231 breast) was 47 µM, the TGI (CCRF-CEM leukemia) was > 24.9 µM and the TGI (COLO 205 colon) was 33.6 µM. The TGI (SK-MEL-2 melanoma) was > 71.1 µM, the TGI (NCI-H460 lung) was > 83.6 µM and the TGI (HCT-116 colon) was 35.2 µM. For the same compound, the TGI (BT-549 breast) was 26.5 µM, the TGI (EKVX NSCLC) was 53.9 µM and the TGI (SNB-19 CNS) was > 100 µM.

With CCNc1cc2c3c(c1)CCN3CCC2 the TGI (MDA-MB-231 breast) was > 10 µM, the TGI (CCRF-CEM leukemia) was > 10 µM and the TGI (COLO 205 colon) was > 10 µM. The TGI (SK-MEL-2 melanoma) was > 10 µM, the TGI (NCI-H460 lung) was > 10 µM and the TGI (HCT-116 colon) was > 10 µM. For the same compound, the TGI (HL-60(TB) leukemia) was > 10 µM, the TGI (EKVX NSCLC) was > 10 µM and the TGI (SNB-19 CNS) was > 10 µM.

With Cc1ncc(COP(=O)(O)O)c(/C=C2\SC(=S)NC2=O)c1O the TGI (MDA-MB-231 breast) was > 100 µM, the TGI (COLO 205 colon) was > 100 µM and the TGI (SK-MEL-2 melanoma) was > 100 µM. The TGI (NCI-H460 lung) was > 100 µM, the TGI (HCT-116 colon) was > 100 µM and the TGI (BT-549 breast) was > 100 µM. For the same compound, the TGI (EKVX NSCLC) was > 100 µM and the TGI (SNB-19 CNS) was > 100 µM.

In the case of C=C1C(C)C2C(Cc3ccccc3)NC(=O)C23OC(=O)/C=C\CC(=O)CCC(C)C/C=C/C3C1O (configuration not stated), the GI50 (CCRF-CEM leukemia) is reported as 0.135 µM and 0.216 µM, the TGI (COLO 205 colon) is reported as 5.09 µM and the TGI (SK-MEL-2 melanoma) is reported as 8.35 µM. For the same compound, the TGI (NCI-H460 lung) was 21.7 µM, the TGI (HCT-116 colon) was 7.35 µM and the GI50 (HL-60(TB) leukemia) was 0.158 µM and 0.755 µM. It also gave a TGI (EKVX NSCLC) of 10.1 µM and a TGI (SNB-19 CNS) of 12.9 µM.

[N-]=[N+]=NCC(O)Cn1cnc2c(NC(=O)c3ccccc3)ncnc21 (configuration not stated) was tested, and the TGI (CCRF-CEM leukemia) was > 100 µM, the TGI (COLO 205 colon) was 76.9 µM and the TGI (SK-MEL-2 melanoma) was > 100 µM. For the same compound, the TGI (NCI-H460 lung) was > 100 µM, the TGI (HCT-116 colon) was > 100 µM and the TGI (HL-60(TB) leukemia) was > 100 µM. The TGI (EKVX NSCLC) was > 100 µM and the TGI (SNB-19 CNS) was > 100 µM.

With COC(NC(=O)Nc1ccccc1C)(C(F)(F)F)C(F)(F)F the TGI (CCRF-CEM leukemia) was > 100 µM, the TGI (COLO 205 colon) was > 100 µM and the TGI (NCI-H460 lung) was > 100 µM. For the same compound, the TGI (HCT-116 colon) was > 100 µM, the TGI (BT-549 breast) was > 100 µM and the TGI (HL-60(TB) leukemia) was > 100 µM. For the same compound, the TGI (SNB-19 CNS) was > 100 µM.

With C#CCOC(=O)c1ccc(OC(C)=O)cc1 the TGI (MDA-MB-231 breast) was > 100 µM, the TGI (CCRF-CEM leukemia) was > 100 µM and the TGI (COLO 205 colon) was > 100 µM. For the same compound, the TGI (SK-MEL-2 melanoma) was > 100 µM, the TGI (NCI-H460 lung) was > 100 µM and the TGI (HCT-116 colon) was > 100 µM. For the same compound, the TGI (BT-549 breast) was > 100 µM, the TGI (EKVX NSCLC) was > 100 µM and the TGI (SNB-19 CNS) was > 100 µM.

In the case of CCCCCCCCC#CCCCCCCCCCC[C@@H]1C(=O)O[C@H](C)[C@@H]1O (tested in a mixture with another compound), the TGI (MDA-MB-231 breast) is reported as 94.6 µM, the TGI (COLO 205 colon) is reported as > 100 µM and the TGI (SK-MEL-2 melanoma) is reported as 46.4 µM. The TGI (NCI-H460 lung) was 35.8 µM, the TGI (HCT-116 colon) was > 100 µM and the TGI (BT-549 breast) was 38.5 µM. For the same compound, the TGI (EKVX NSCLC) was 54.9 µM and the TGI (SNB-19 CNS) was 38.1 µM.

CC1=CCC[C@H]2[C@](C)(CC3=CC(=O)C(SCC(C)C)=CC3=O)[C@@H](C)CC[C@]12C was tested, and the TGI (MDA-MB-231 breast) was > 64 µM, the TGI (CCRF-CEM leukemia) was 3.72 µM and the TGI (COLO 205 colon) was 36.6 µM. The TGI (SK-MEL-2 melanoma) was 31 µM, the TGI (NCI-H460 lung) was 31.5 µM and the TGI (HCT-116 colon) was 24.8 µM. For the same compound, the TGI (BT-549 breast) was 35.8 µM, the TGI (EKVX NSCLC) was 31 µM and the TGI (SNB-19 CNS) was 34.6 µM.

O=[N+]([O-])/C(C(Cl)=C(Cl)Cl)=C(/Nc1cccc2cccnc12)n1nnc2ccccc21 was tested, and the TGI (CCRF-CEM leukemia) was > 100 µM, the TGI (COLO 205 colon) was 31.1 µM and the TGI (SK-MEL-2 melanoma) was 33.5 µM. For the same compound, the TGI (NCI-H460 lung) was > 100 µM, the TGI (HCT-116 colon) was > 100 µM and the TGI (BT-549 breast) was 35.8 µM. For the same compound, the TGI (EKVX NSCLC) was > 100 µM and the TGI (SNB-19 CNS) was 33.1 µM.

For O=C(O)c1cccc(NC(C(=O)c2ccccc2)c2ccccc2)c1 (configuration not stated), the TGI (MDA-MB-231 breast) was > 100 µM, the TGI (CCRF-CEM leukemia) was > 100 µM and the TGI (COLO 205 colon) was > 100 µM. The TGI (SK-MEL-2 melanoma) was > 100 µM, the TGI (NCI-H460 lung) was > 100 µM and the TGI (HCT-116 colon) was > 100 µM. The TGI (HL-60(TB) leukemia) was > 100 µM, the TGI (EKVX NSCLC) was > 100 µM and the TGI (SNB-19 CNS) was > 100 µM.

For O=c1c2ccccc2nc2ccc3c(Cl)[nH][nH]c3c12, the TGI (CCRF-CEM leukemia) was > 100 µM, the TGI (COLO 205 colon) was > 100 µM and the TGI (SK-MEL-2 melanoma) was > 100 µM. For the same compound, the TGI (NCI-H460 lung) was > 100 µM, the TGI (HCT-116 colon) was > 100 µM and the TGI (HL-60(TB) leukemia) was > 100 µM. The TGI (EKVX NSCLC) was > 100 µM and the TGI (SNB-19 CNS) was > 100 µM.

With CCOC(=O)C1=C(O)c2ccc(C)cc2C(=O)C1=O the TGI (CCRF-CEM leukemia) was > 100 µM, the TGI (COLO 205 colon) was > 100 µM and the TGI (SK-MEL-2 melanoma) was > 100 µM. For the same compound, the TGI (NCI-H460 lung) was > 100 µM, the TGI (HCT-116 colon) was > 100 µM and the TGI (HL-60(TB) leukemia) was > 100 µM. For the same compound, the TGI (EKVX NSCLC) was > 100 µM and the TGI (SNB-19 CNS) was > 100 µM.

CCN(CC)C(=O)Cn1c2c(c3ccccc31)CCCC2 was tested, and the TGI (CCRF-CEM leukemia) was > 100 µM, the TGI (COLO 205 colon) was > 100 µM and the TGI (SK-MEL-2 melanoma) was > 100 µM. The TGI (NCI-H460 lung) was > 100 µM, the TGI (HCT-116 colon) was > 100 µM and the TGI (BT-549 breast) was > 100 µM. The TGI (HL-60(TB) leukemia) was > 100 µM, the TGI (EKVX NSCLC) was > 100 µM and the TGI (SNB-19 CNS) was > 100 µM.

In the case of CC(C)(C)C1=C(Br)C(O)(C(C)(C)C)OP1(=O)c1ccccc1 (configuration not stated), the TGI (MDA-MB-231 breast) is reported as > 100 µM, the TGI (CCRF-CEM leukemia) is reported as > 100 µM and the TGI (COLO 205 colon) is reported as > 100 µM. For the same compound, the TGI (SK-MEL-2 melanoma) was > 100 µM, the TGI (NCI-H460 lung) was > 100 µM and the TGI (HL-60(TB) leukemia) was > 100 µM. The TGI (EKVX NSCLC) was > 100 µM and the TGI (SNB-19 CNS) was > 100 µM.
